Source: PMC10009108, “Design, synthesis and screening of indole acetic acid-based tri-azo moieties as antioxidants, anti-microbial and cytotoxic agents” (Frontiers in Pharmacology, 2023)
In brackets after ≈: the same amount, converted by molar mass.

Tests used:
resistant S. aureus = assay: Antibacterial assay, resistant strains; format: cell-based, Staphylococcus aureus; set-up: key to Antibacterial activity, resistant S. aureus: Activity: Positive = have anti-bacterial activity; --- = no anti-bacterial activity; conditions: 25 μg/mL; resistant strain
Excerpt: (§1) The micro broth dilution method was used to establish the antibacterial potential of test samples against Staphylococcus aureus (ATCC-6538), Bacillus subtilis (ATCC-6633), Escherichia coli (ATCC-25922), Klebsiella pneumoniae (ATCC-1705), and Pseudomonas aeruginosa (ATCC-15442) and for the resistant strains of MRSA Staphylococcus aureus, P. aeruginosa and Escherichia coli. The procedure used is described by ([Sarker et al., 2007]). Bacterial inoculum was formed under aseptic conditions keeping the density near 5 × 10^4 CFU/mL in pre-autoclaved nutrient broth. Test samples of an aliquot of 5 µL were shifted to labeled wells of 96 well plates, and after that addition of 195 µL of nutrient broth; was accomplished. After that, a 2-fold serial dilution of every sample was arranged to get final concentrations of 12.5 μg/mL. Then, with the help of a micropipette, 195 µL of bacterial culture of respective strains was poured into each well; further advancement was incubating of plates for 30 min at the temperature of 37°C. […] Incubation of plates was again carried out at 37°C for 1 day, absorbance was noted, and net change in turbidity was the difference between two values of absorbance.
(§2) Schiff base tri-azo compounds were investigated for antibacterial potential. […] 6.25 μg/mL for 5b and 5g, and the least, Table 4 3.12 μg/mL was for 5f. […] Substituents with electron-withdrawing attributes, e.g., -NO2, -Cl, -OH on the aromatic ring, assert a great impact on the antibacterial activity of synthetic compounds. It is also observed that an increase in the number of -OH groups tend to enhance the activity ([Hosamani and Shingalapur, 2011]). Due to the difference in cell-wall composition of Gram + ve and -ve bacteria, different compounds show different features towards the same micro-organism ([Goszczyn’ska et al., 2015]).

[1] = system: Klebsiella pneumoniae (ATCC-1705); assay: Antibacterial assay, micro broth dilution; format: cell-based
Excerpt: as §1, §2

[2] = system: Klebsiella pneumoniae (ATCC-1705); assay: Antibacterial assay, micro broth dilution; format: cell-based; set-up: key: Active = Bacterial activity; --- = no activity; conditions: 25 μg/mL
[3] = system: Aspergillus flavus (FCBP-0064); assay: Antifungal disc diffusion assay; format: cell-based; set-up: key to Zone of inhibition, A. flavus: --- = no anti-fungal activity; conditions: 20 μg/disc
Method: (§3) The antifungal response to these chemical moieties was evaluated through a procedure designated by ([Zahra et al., 2017]). Amphotericin B (4 mg/mL DMSO) is used as + ve control and DMSO as-ve one (5 μL/disc). Sterile SDA-coated plates were used, on which 100 µL of suspension of spores for each strain (previously reaped-in-Tween-20 solution) was spread. Discs of sterile filter paper containing 5 µL of sample solution (4 mg/mL DMSO) were kept on plates and incubated for 2 days at 28°C. Zones of inhibition were recorded.
(§4) The Synthetic compound library was subjected to an antifungal assay using five different strains of Fungai, i.e., Fusarium solani (FCBP-0291), Aspergillus fumigatus (FCBP-66), Aspergillus flavus (FCBP-0064), Aspergillus niger (FCBP-0198) and Mucor species (FCBP-0300). Amphotericin B was the standard drug used. […] The outcomes are concise in Table 5.

[4] = system: Escherichia coli (ATCC-25922); assay: Antibacterial assay, micro broth dilution; format: cell-based; set-up: key: Active = Bacterial activity; --- = no activity; conditions: 25 μg/mL
[5] = system: Streptomyces 85 E strains; assay: Protein kinase inhibition assay; format: cell-based; set-up: key to Bald zone: Active = Bacterial activity; --- = no activity; conditions: Sample Concentration = 20 μg/mL; Surfactin B 20 μg/mL
resistant P. aeruginosa = assay: Antibacterial assay, resistant strains; format: cell-based; set-up: key to Antibacterial activity, resistant P. aeruginosa: Activity: Positive = have anti-bacterial activity; --- = no anti-bacterial activity; conditions: 25 μg/mL; resistant strain
Excerpt: as §1, §2

[6] = system: Aspergillus niger (FCBP-0198); assay: Antifungal disc diffusion assay; format: cell-based; set-up: key to Zone of inhibition, A. niger: --- = no anti-fungal activity; conditions: 20 μg/disc
Method: as §3, §4

MRSA [7] = assay: Antibacterial assay, resistant strains; format: cell-based, Staphylococcus aureus; conditions: 25 μg/mL; resistant strain
resistant E.coli = assay: Antibacterial assay, resistant strains; format: cell-based, Escherichia coli; set-up: key to Antibacterial activity, resistant E.coli: Activity: Positive = have anti-bacterial activity; --- = no anti-bacterial activity; conditions: 25 μg/mL; resistant strain
Excerpt: as §1, §2

MRSA [8] = assay: Antibacterial assay, resistant strains; format: cell-based; conditions: Staphylococcus aureus, resistant strain
Excerpt: as §1, §2

[9] = system: Mucor species (FCBP-0300); assay: Antifungal disc diffusion assay; format: cell-based; set-up: key to Zone of inhibition, Mucor: --- = no anti-fungal activity; conditions: 20 μg/disc
Method: as §3, §4

in vivo = assay: in vivo
Method: The cytotoxic evaluation was accomplished using the decorum designed by ([Khan et al., 2011]). To a plate of 96 wells, artificial seawater and nauplii were added. Test samples were taken in wells (40, 20, 10, 5 μg/mL) after making up the final volume with seawater, the plates were left uncovered under the lamp, and after 24 h, the number of surviving larvae was calculated. For samples having ≥50% mortality, the median lethal conc was calculated using the table curve software, Doxorubicin was used as + ve control, and DMSO was the -ve. The percentage of killed organisms was found using the formula. Percentage Mortality=No of dead shrimps÷Total Number of Shrimps×100
The results of all the experiments were articulated as mean ± SD. Each test was performed in triplicate. TAC assay was analyzed by one-way analysis of variance (ANOVA) following DUNCAN’S test using the statistical package for social sciences 18 and p < 0.05 was considered as significant where appropriate. For samples having ≥50% mortality, the median lethal concentration (LC50) was calculated using the table curve software.
This evaluation test forms the basis for the bioactive scanning of compounds for their potential as anti-cancer moieties, to be investigated on a large scale ([Amanullah et al., 2012]). […] Similarities between Artemia salina and mammalian cells have been reported due to DNA-dependent RNA polymerases ([Birndorf et al., 1975]). These Schiff bases were investigated for their cytotoxic potential. […] Doxorubicin was used as the positive control.

[10] = system: Fusarium solani (FCBP-0291); assay: Antifungal disc diffusion assay; format: cell-based; set-up: key to Zone of inhibition, F. solani: --- = no anti-fungal activity
Method: as §3, §4

O=[N+]([O-])c1ccc(C=Nn2c(Cc3c[nH]c4ccccc34)n[nH]c2=S)cc1 [Compound 5d]
Antibacterial activity, resistant S. aureus: Activity (resistant S. aureus): --- | MIC ([1]; ATCC1705): 12.5 µg/mL (≈ 33 µM) | Antibacterial activity, Klebsiella pneumoniae: Activity [2]: Active | Zone of inhibition, A. flavus [3]: --- | Antibacterial activity, E. coli: Activity [4]: Active | Bald zone [5]: --- | Antibacterial activity, resistant P. aeruginosa: Activity (resistant P. aeruginosa): --- | Zone of inhibition, A. niger [6]: --- | Antibacterial activity, MRSA: Activity (MRSA [7]): Active | Antibacterial activity, resistant E.coli: Activity (resistant E.coli): --- | MIC (MRSA [8]): 12.5 µg/mL (≈ 33 µM) | Zone of inhibition, Mucor [9]: --- | LC50 at 24 h (in vivo): 5.7 µg/mL (≈ 15.1 µM) | Zone of inhibition, F. solani ([10]; 20 μg/disc): ---

S=c1[nH]nc(Cc2c[nH]c3ccccc23)n1N=Cc1ccc(Cl)cc1 [Compound 5c]
Antibacterial activity, resistant S. aureus: Activity (resistant S. aureus): --- | MIC ([1]; ATCC1705): 12.5 µg/mL (≈ 34 µM) | Antibacterial activity, Klebsiella pneumoniae: Activity [2]: Active | Zone of inhibition, A. flavus [3]: --- | Antibacterial activity, E. coli: Activity [4]: Active | Bald zone [5]: --- | Antibacterial activity, resistant P. aeruginosa: Activity (resistant P. aeruginosa): --- | Zone of inhibition, A. niger [6]: --- | Antibacterial activity, MRSA: Activity (MRSA [7]): Active | Antibacterial activity, resistant E.coli: Activity (resistant E.coli): --- | MIC (MRSA [8]): 12.5 µg/mL (≈ 34 µM) | Zone of inhibition, Mucor [9]: --- | LC50 at 24 h (in vivo): 5.7 µg/mL (≈ 15.5 µM) | Zone of inhibition, F. solani ([10]; 20 μg/disc): ---

S=c1[nH]nc(Cc2c[nH]c3ccccc23)n1N=Cc1cccc(Cl)c1 [Compound 5f]
Antibacterial activity, resistant S. aureus: Activity (resistant S. aureus): --- | MIC ([1]; ATCC1705): 3.12 µg/mL (≈ 8.48 µM) | MIC ([1]; ATCC1705, 24 h): 3.12 µg/mL (≈ 8.49 µM) | Antibacterial activity, Klebsiella pneumoniae: Activity [2]: Active | Zone of inhibition, A. flavus [3]: --- | Antibacterial activity, E. coli: Activity [4]: --- | Bald zone [5]: --- | Antibacterial activity, resistant P. aeruginosa: Activity (resistant P. aeruginosa): --- | Zone of inhibition, A. niger [6]: --- | Antibacterial activity, MRSA: Activity (MRSA [7]): Active | Antibacterial activity, resistant E.coli: Activity (resistant E.coli): --- | MIC (MRSA [8]): 12.5 µg/mL (≈ 34 µM) | Zone of inhibition, Mucor [9]: --- | LC50 at 24 h (in vivo): 5.7 µg/mL (≈ 15.5 µM) | Zone of inhibition, F. solani ([10]; 20 μg/disc): ---

COc1cccc(C=Nn2c(Cc3c[nH]c4ccccc34)n[nH]c2=S)c1 [Compound 5b]
Antibacterial activity, resistant S. aureus: Activity (resistant S. aureus): --- | MIC ([1]; ATCC1705): 6.25 µg/mL (≈ 17.2 µM) | Antibacterial activity, Klebsiella pneumoniae: Activity [2]: Active | Zone of inhibition, A. flavus [3]: --- | Antibacterial activity, E. coli: Activity [4]: --- | Bald zone [5]: 10.5 mm | Antibacterial activity, resistant P. aeruginosa: Activity (resistant P. aeruginosa): --- | Zone of inhibition, A. niger [6]: --- | Antibacterial activity, MRSA: Activity (MRSA [7]): Active | Antibacterial activity, resistant E.coli: Activity (resistant E.coli): --- | MIC (MRSA [8]): 12.5 µg/mL (≈ 34.4 µM) | Zone of inhibition, Mucor [9]: --- | LC50 at 24 h (in vivo): 14.1 µg/mL (≈ 38.9 µM) | Zone of inhibition, F. solani ([10]; 20 μg/disc): ---

Oc1ccc(C=Nn2c(Cc3c[nH]c4ccccc34)n[nH]c2=S)cc1 [Compound 5e]
Antibacterial activity, resistant S. aureus: Activity (resistant S. aureus): --- | MIC ([1]; ATCC1705): 12.5 µg/mL (≈ 35.8 µM) | Antibacterial activity, Klebsiella pneumoniae: Activity [2]: Active | Zone of inhibition, A. flavus [3]: --- | Antibacterial activity, E. coli: Activity [4]: Active | Bald zone [5]: --- | Antibacterial activity, resistant P. aeruginosa: Activity (resistant P. aeruginosa): --- | Zone of inhibition, A. niger [6]: --- | Antibacterial activity, MRSA: Activity (MRSA [7]): Active | Antibacterial activity, resistant E.coli: Activity (resistant E.coli): --- | MIC (MRSA [8]): 12.5 µg/mL (≈ 35.8 µM) | Zone of inhibition, Mucor [9]: --- | LC50 at 24 h (in vivo): 14.1 µg/mL (≈ 40.5 µM) | antifungal activity against Fusarium solani (in words) [10]: active | Zone of inhibition, F. solani ([10]; 20 μg/disc): 6 mm | zone of inhibition at 20 µg/disc ([10]; Fusarium solani, 20 μg/disc, read-out: Zone of inhibition, F. solani): > 6 mm

Oc1cccc(C=Nn2c(Cc3c[nH]c4ccccc34)n[nH]c2=S)c1 [Compound 5a]
MIC ([1]; ATCC1705): 12.5 µg/mL (≈ 35.8 µM) | Antibacterial activity, Klebsiella pneumoniae: Activity [2]: Active | Zone of inhibition, A. flavus [3]: --- | Bald zone [5]: 9 mm | Zone of inhibition, A. niger [6]: --- | Antibacterial activity, MRSA: Activity (MRSA [7]): Active | MIC (MRSA [8]): 12.5 µg/mL (≈ 35.8 µM) | Zone of inhibition, Mucor [9]: --- | LC50 at 24 h (in vivo): 11.2 µg/mL (≈ 31.9 µM) | Zone of inhibition, F. solani ([10]; 20 μg/disc): ---

COc1cc(C=Nn2c(Cc3c[nH]c4ccccc34)n[nH]c2=S)cc(OC)c1OC [Compound 5g]
Antibacterial activity, resistant S. aureus: Activity (resistant S. aureus): --- | MIC ([1]; ATCC1705): 6.25 µg/mL (≈ 14.8 µM) | Antibacterial activity, Klebsiella pneumoniae: Activity [2]: Active | Zone of inhibition, A. flavus [3]: --- | Antibacterial activity, E. coli: Activity [4]: --- | Bald zone [5]: 7.5 mm | Clear zone [5]: 6 mm | Antibacterial activity, resistant P. aeruginosa: Activity (resistant P. aeruginosa): --- | Zone of inhibition, A. niger [6]: --- | Antibacterial activity, MRSA: Activity (MRSA [7]): Active | Antibacterial activity, resistant E.coli: Activity (resistant E.coli): --- | MIC (MRSA [8]): 12.5 µg/mL (≈ 29.5 µM) | Zone of inhibition, Mucor [9]: --- | LC50 at 24 h (in vivo): 18.2 µg/mL (≈ 42.9 µM) | Zone of inhibition, F. solani ([10]; 20 μg/disc): ---
